Assay results: patent US20220040129A1, “TREATMENT OF HYPERAMMONEMIA IN PATIENTS WITH RENAL INSUFFICIENCY” (RECORDATI S.p.A., priority 2019, published 2022)

Assays:
Test in all cases: In vitro transporter inhibition
Assay type in all cases: in vitro ADME
human BCRP = molecular target: T1, human BCRP (Homo sapiens, UniProt Q9UNQ0)
T1 sequence (Q9UNQ0 1-655): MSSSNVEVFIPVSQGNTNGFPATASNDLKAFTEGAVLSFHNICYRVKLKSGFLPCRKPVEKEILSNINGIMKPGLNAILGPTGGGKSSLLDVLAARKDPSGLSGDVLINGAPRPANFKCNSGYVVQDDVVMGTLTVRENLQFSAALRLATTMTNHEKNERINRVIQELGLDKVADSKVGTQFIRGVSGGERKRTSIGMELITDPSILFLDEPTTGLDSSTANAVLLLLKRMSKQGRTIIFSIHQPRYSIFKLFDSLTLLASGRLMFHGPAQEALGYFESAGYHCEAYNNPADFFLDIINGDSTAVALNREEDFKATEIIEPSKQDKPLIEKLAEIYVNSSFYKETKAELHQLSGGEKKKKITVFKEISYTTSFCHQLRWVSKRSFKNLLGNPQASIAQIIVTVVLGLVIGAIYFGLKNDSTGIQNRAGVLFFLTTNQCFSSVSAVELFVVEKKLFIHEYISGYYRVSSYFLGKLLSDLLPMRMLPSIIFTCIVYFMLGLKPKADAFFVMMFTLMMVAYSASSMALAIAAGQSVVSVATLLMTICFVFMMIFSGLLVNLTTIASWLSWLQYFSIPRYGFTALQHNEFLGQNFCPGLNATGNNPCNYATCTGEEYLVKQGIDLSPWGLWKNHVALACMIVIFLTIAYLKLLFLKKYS
Procedure: (§1) In vitro drug interaction studies were performed with human transporters. […] Potential interactions with inhibitors of the OAT1 transporter were considered clinically irrelevant.

human MATE1 = molecular target: T2, human MATE1 (Homo sapiens, UniProt Q96FL8)
T2 sequence (Q96FL8 1-570): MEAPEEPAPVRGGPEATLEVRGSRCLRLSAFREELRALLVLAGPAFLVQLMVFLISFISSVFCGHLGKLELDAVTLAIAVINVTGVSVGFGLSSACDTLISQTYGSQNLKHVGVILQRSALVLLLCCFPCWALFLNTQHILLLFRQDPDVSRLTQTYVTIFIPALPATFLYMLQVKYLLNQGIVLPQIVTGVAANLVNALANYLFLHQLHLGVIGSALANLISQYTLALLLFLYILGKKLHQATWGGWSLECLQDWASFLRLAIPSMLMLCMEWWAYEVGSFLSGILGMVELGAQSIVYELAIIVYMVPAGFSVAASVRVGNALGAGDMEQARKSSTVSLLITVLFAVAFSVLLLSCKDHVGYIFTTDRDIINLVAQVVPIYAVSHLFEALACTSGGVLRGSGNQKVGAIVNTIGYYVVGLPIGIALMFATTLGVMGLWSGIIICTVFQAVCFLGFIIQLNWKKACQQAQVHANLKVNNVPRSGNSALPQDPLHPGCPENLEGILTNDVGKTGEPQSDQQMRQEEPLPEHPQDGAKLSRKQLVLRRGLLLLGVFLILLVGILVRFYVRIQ
Procedure: as §1

human MATE2-K = human MATE2-K (Homo sapiens, UniProt Q86VL8)
Chain of human MATE2-K (Q86VL8 1-566 isoform Q86VL8-3): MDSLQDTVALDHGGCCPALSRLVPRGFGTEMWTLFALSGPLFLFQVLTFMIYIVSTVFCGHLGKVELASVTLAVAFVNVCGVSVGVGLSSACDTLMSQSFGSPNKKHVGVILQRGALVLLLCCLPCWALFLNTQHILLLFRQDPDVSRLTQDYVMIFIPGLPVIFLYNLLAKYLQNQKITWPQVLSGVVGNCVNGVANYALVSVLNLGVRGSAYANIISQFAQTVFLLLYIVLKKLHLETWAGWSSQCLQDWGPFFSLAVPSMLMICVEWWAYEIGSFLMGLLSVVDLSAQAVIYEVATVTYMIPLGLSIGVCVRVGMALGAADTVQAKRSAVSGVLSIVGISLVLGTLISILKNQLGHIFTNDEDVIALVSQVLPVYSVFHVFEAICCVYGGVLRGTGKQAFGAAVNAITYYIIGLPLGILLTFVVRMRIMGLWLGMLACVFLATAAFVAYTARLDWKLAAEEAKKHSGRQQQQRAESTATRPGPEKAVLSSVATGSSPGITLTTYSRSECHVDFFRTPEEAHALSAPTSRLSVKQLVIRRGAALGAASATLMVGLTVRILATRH
Procedure: as §1

human OAT1 = molecular target: T3, human OAT1 (Homo sapiens, UniProt Q4U2R8)
T3 sequence (Q4U2R8 1-563): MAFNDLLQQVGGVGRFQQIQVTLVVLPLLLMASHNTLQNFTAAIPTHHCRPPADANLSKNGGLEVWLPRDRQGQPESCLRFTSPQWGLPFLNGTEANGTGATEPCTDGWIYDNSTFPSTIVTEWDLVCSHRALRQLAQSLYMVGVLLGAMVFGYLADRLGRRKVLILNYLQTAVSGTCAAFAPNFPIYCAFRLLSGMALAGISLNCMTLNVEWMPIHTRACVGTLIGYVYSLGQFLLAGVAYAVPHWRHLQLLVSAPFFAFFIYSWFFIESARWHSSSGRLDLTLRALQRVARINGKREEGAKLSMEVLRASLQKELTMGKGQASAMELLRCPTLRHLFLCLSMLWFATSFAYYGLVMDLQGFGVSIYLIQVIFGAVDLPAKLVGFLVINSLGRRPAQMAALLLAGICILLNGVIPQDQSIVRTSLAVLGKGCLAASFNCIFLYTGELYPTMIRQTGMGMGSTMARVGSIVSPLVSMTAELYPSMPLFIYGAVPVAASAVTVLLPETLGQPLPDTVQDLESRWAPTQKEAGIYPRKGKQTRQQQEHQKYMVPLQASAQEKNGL
Procedure: as §1

human OAT3 = molecular target: T4, human OAT3 (Homo sapiens, UniProt Q8TCC7)
T4 sequence (Q8TCC7 1-542): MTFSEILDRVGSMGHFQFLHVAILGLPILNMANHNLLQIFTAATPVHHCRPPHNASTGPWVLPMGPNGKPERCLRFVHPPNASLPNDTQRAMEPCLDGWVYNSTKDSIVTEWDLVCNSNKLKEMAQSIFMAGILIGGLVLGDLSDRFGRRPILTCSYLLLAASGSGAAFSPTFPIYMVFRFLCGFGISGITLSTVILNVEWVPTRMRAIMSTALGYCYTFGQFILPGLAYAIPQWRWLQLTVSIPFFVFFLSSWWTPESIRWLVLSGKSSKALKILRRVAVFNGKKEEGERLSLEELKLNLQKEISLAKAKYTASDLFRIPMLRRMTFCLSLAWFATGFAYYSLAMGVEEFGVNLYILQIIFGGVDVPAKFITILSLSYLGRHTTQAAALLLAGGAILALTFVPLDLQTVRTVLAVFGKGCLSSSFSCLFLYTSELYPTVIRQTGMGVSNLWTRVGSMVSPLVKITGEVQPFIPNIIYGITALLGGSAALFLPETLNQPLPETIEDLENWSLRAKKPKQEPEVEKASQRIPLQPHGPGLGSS
Procedure: as §1

NC(=O)N[C@@H](CCC(=O)O)C(=O)O [carglumic acid, N-carbamoyl-L-glutamic acid]
not an inhibitor: Inhibition of human BCRP efflux transporter (human BCRP) | Inhibition of human MATE1 uptake transporter (human MATE1) | Inhibition of human MATE2-K uptake transporter (human MATE2-K) | Inhibition of human OAT1 uptake transporter (human OAT1) | Inhibition of human OAT3 uptake transporter (human OAT3)
